The results in this text go back to US8962810B2, “Macrocyclic heterocyclic compound for inhibiting hepatitis C virus and preparation and use thereof” (AB Pharma Ltd., priority 2011, dated 2015).

The structures appear in SMILES notation.

In general, IC50 refers to the concentration at which inhibition is half-maximal.

The target of the experiment is T1, HCV Protease (HCV NS3-4A) (Hepatitis C virus genotype 1a, UniProt P27958).
T1 construct: HCV Protease: HCV NS3-4A, self-prepared; made in house
T1 sequence (P27958 1658-1711): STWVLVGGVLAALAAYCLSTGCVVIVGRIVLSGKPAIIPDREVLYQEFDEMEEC
T1 sequence (P27958 1027-1657): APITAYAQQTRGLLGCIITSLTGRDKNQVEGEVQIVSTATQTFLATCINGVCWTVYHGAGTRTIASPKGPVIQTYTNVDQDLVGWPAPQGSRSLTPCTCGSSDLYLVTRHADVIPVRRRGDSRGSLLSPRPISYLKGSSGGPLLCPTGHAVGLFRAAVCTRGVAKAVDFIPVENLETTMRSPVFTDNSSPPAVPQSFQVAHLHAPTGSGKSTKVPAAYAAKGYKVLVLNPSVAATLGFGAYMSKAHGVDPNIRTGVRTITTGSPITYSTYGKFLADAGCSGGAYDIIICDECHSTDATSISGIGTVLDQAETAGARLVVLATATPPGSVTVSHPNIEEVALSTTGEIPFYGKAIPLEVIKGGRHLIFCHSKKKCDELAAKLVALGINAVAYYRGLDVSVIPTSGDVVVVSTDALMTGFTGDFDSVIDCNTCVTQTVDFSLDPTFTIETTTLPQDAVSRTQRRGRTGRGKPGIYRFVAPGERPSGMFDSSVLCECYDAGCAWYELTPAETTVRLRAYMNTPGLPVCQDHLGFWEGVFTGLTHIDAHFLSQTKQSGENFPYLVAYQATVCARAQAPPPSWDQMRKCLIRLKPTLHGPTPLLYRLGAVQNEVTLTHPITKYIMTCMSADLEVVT
As to the kind of experiment: HCV Protease (HCV NS3-4A) anti-activity assay, fluorescence quenching (FRET). The class given is biochemical. The protocol:
Method of HCV Protease (HCV NS3-4A) Anti-Activity Assay:
HCV Protease (HCV NS3/4A) anti-activity was measured by an inter fluorescence quenching system. EDANS group and DABCYL group were bonded on each side of a peptide. When protein cleavage started, fluorescence quenching of EDANS by DABCYL was detected. We used a high throughput screening model for HCV NS3/4A protease inhibitors, the tested drugs were prepared with 5 different concentrations, positive control and negative control were set in the same time. In the optimized reaction system, fluorescence were determined at ex=355, em=520 by a Polarstar fluorescence detector. Calculate the inhibition rate of each concentration; calculate the half maximal inhibitory concentration (IC50) with the method of Reed-Muench.
Materials: HCV Protease: HCV NS3-4A, self-prepared, stored at −70. HCV Protease substrate (FRET-S): Ac-Asp-Glu-Asp(EDANS)-Glu-Glu-Abu-ψ-[COO]-Ala-Ser-Lys-(DABCYL)-NH2, supplied by AnaSpec USA, prepared of 100 μM by DMSO, distributed and stored at −20 without light. Buffer solution: 30 mM NaCl, 5 mM CaCl2, 10 mM DTT, 50 mM Tris (pH7.8).
Instrument: fluorescence detector Polarstar from Germany Company BMG
Preparation and operation: preparation of 10 mg/mL by DMSO, dilute of 10000, 2000, 400, 80, 16 ng/mL as tested concentrations by buffer solutions, adding 20 μL into each well, the total reaction system is 200 μL, to make the final concentrations of 1000, 200, 40, 8, 1.6 ng/mL. Add 140 μL buffer solution, 20 μL drug solution, 20 μL HCV protease, and 20 μL FRET-S substrate with final concentration of 0.25 μM into 96-well fluorescence microtiterplate, the reaction started at 37, set control wells of protease-substrate reaction and of isolate substrate and isolate protease, fluorescence signals were detected by fluorescence detector (ex=355,em=520). Calculate the inhibition rates of samples for each concentration by comparison of fluorescence value of sample in each well and the fluorescence control value of enzyme, calculate the half maximal inhibitory concentration (IC50) of samples to HCV protease with the method of Reed-Muench.
THF and Et2O were distilled from sodium metal and benzophenone. DCM, pentane and hexane were distilled form calcium hydride. Special raw materials and intermediates in the invention were supplied by Zannan SciTech Co. for ordered processing, Ltd. in Shanghai, others reagents were purchased from Shanghai reagent company, Aldrich, Acros etc. If intermediates or products of synthesis were not enough for the next step of reaction, the synthesis shall be repeated until it is sufficient. The HCV protease (HCV NS3-4A) inhibitory activity assays in the present invention were performed by relevant cooperation service units of China Institutes for Biological Science in Beijing.
Consider `CCC1CC1(NC(=O)C1CC2CN1C(=O)C(C(C)(C)C)NC(=O)OCC(C)(C)CCCCOc1cccc3c1CN(C3)C(=O)O2)C(=O)NS(=O)(=O)C1CC1` (stereo not drawn) [Compound 15u], for which the IC50 was in the range of 0.1 to 5 nM.
Regarding `C=C[C@H]1C[C@@]1(NC(=O)C1C[C@@H]2CN1C(=O)[C@H](C(C)(C)C)NC(=O)OCC(C)(C)OC/C=C/COc1cccc3c1CN(C3)C(=O)O2)C(=O)NS(=O)(=O)C1CC1` (stereo partly drawn) [Compound 15ah], the IC50 lay within 0.1 to 5 nM.
To `CC[C@H]1C[C@@]1(NC(=O)C1C[C@@H]2CN1C(=O)[C@H](C(C)(C)C)NC(=O)OCCC/C=C/CCOc1cccc3c1CN(C3)C(=O)O2)C(=O)NS(=O)(=O)C1CC1` (stereo partly drawn) [Compound 15ap] belongs 0.1 to 5 nM; to `CC[C@H]1C[C@@]1(NC(=O)C1C[C@@H]2CN1C(=O)[C@H](C(C)(C)C)NC(=O)OCC/C=C/COc1cccc3c1CN(C3)C(=O)O2)C(=O)NS(=O)(=O)C1CC1` (stereo partly drawn) [Compound 15ae], 0.1 to 5 nM; to `C=C[C@H]1C[C@@]1(NC(=O)C1C[C@@H]2CN1C(=O)[C@H](C(C)(C)C)NC(=O)OCCCC/C=C/COc1ccc3c(c1)CN(C3)C(=O)O2)C(=O)NS(=O)(=O)C1CC1` (stereo partly drawn) [Compound 15bh], 0.1 to 5 nM.
To `CC[C@H]1C[C@@]1(NC(=O)C1C[C@@H]2CN1C(=O)[C@H](C(C)(C)C)NC(=O)OCC(C)(C)CCCCOC(=O)c1ccc3c(c1)CN(C3)C(=O)O2)C(=O)NS(=O)(=O)C1CC1` (stereo partly drawn) [Compound 15br] belongs 51 to 300 nM; to `C=C[C@H]1C[C@@]1(NC(=O)C1C[C@@H]2CN1C(=O)[C@H](C(C)(C)C)NC(=O)OCC1(CC/C=C/COc3cccc4c3CN(C4)C(=O)O2)CC1)C(=O)NS(=O)(=O)C1CC1` (stereo partly drawn) [Compound 15c], 0.1 to 5 nM; to `CC[C@H]1C[C@@]1(NC(=O)C1C[C@@H]2CN1C(=O)[C@H](C(C)(C)C)NC(=O)OCC(C)(C)CCCCN(C)c1cccc3c1CN(C3)C(=O)O2)C(=O)NS(=O)(=O)C1CC1` (stereo partly drawn) [Compound 15cd], 0.1 to 5 nM.
In turn, `CC[C@H]1C[C@@]1(NC(=O)C1C[C@@H]2CN1C(=O)[C@H](C(C)(C)C)NC(=O)OCCCCCOc1cccc3c1CN(C3)C(=O)O2)C(=O)NS(=O)(=O)C1CC1` (stereo partly drawn) [Compound 15ag] gave an IC50 of 0.1 to 5 nM.
The compound `C=C[C@H]1C[C@@]1(NC(=O)C1C[C@@H]2CN1C(=O)[C@H](C(C)(C)C)NC(=O)OCCCCCOc1cccc3c1CN(C3)C(=O)O2)C(=O)NS(=O)(=O)C1CC1` (stereo partly drawn) [Compound 15af] came in with a concentration for half-maximal inhibition (IC50) of 0.1 to 5 nM.
`CC[C@H]1C[C@@]1(NC(=O)C1C[C@@H]2CN1C(=O)[C@H](C(C)(C)C)NC(=O)OCC(C)(C)CCCCCOc1ccc3c(c1)CN(C3)C(=O)O2)C(=O)NS(=O)(=O)C1CC1` (stereo partly drawn) [Compound 15bp] came in with an IC50 of 0.1 to 5 nM.
`CC[C@H]1C[C@@]1(NC(=O)C1C[C@@H]2CN1C(=O)[C@H](C(C)(C)C)NC(=O)OCCCCCCNC(=O)c1cccc3c1CN(C3)C(=O)O2)C(=O)NS(=O)(=O)C1CC1` (stereo partly drawn) [Compound 15bb] registered an IC50 of 5.1 to 50 nM.
For the compound `C=C[C@H]1C[C@@]1(NC(=O)C1C[C@@H]2CN1C(=O)[C@H](C(C)(C)C)NC(=O)OCCCC/C=C/COc1c(OC)ccc3c1CN(C3)C(=O)O2)C(=O)NS(=O)(=O)C1CC1` (stereo partly drawn) [Compound 15j], the IC50 was in the range of 0.1 to 5 nM.
For `C=C[C@H]1C[C@@]1(NC(=O)C1C[C@@H]2CN1C(=O)[C@H](C(C)(C)C)NC(=O)OCC(C)(C)CCCCOc1cccc3c1CN(C3)C(=O)O2)C(=O)NS(=O)(=O)C1CC1` (stereo partly drawn) [Compound 15as] the value was 0.1 to 5 nM; for `CC[C@H]1C[C@@]1(NC(=O)C1C[C@@H]2CN1C(=O)[C@H](C(C)(C)C)NC(=O)OCC(C)(C)CC/C=C/COc1cccc3c1CN(C3)C(=O)O2)C(=O)NS(=O)(=O)C1CC1` (stereo partly drawn) [Compound 15r], 0.1 to 5 nM; for `C=C[C@H]1C[C@@]1(NC(=O)C1C[C@@H]2CN1C(=O)[C@H](C(C)(C)C)NC(=O)OCC1(CCCCCOc3cccc4c3CN(C4)C(=O)O2)CC1)C(=O)NS(=O)(=O)C1CC1` (stereo partly drawn) [Compound 15d], 0.1 to 5 nM.
For `C=CC1CC1(NC(=O)C1CC2CN1C(=O)C(C(C)(C)C)NC(=O)OCCCCCCCCOc1cccc3c1CN(C3)C(=O)O2)C(=O)NS(=O)(=O)C1CC1` (stereo not drawn) [Compound 15ac] the value was 0.1 to 5 nM.
The compound `CC[C@H]1C[C@@]1(NC(=O)C1C[C@@H]2CN1C(=O)[C@H](C(C)(C)C)NC(=O)OCCCCCCOCc1cccc3c1CN(C3)C(=O)O2)C(=O)NS(=O)(=O)C1CC1` (stereo partly drawn) [Compound 15aw] yielded an IC50 of 5.1 to 50 nM.
For `C=C[C@H]1C[C@@]1(NC(=O)C1C[C@@H]2CN1C(=O)[C@H](C(C)(C)C)NC(=O)OCCC/C=C/COc1c(OC)ccc3c1CN(C3)C(=O)O2)C(=O)NS(=O)(=O)C1CC1` (stereo partly drawn) [Compound 15k] the value was 0.1 to 5 nM; for `CC[C@H]1C[C@@]1(NC(=O)C1C[C@@H]2CN1C(=O)[C@H](C(C)(C)C)NC(=O)OCC1(C/C=C/CSc3cccc4c3CN(C4)C(=O)O2)CC1)C(=O)NS(=O)(=O)C1CC1` (stereo partly drawn) [Compound 15ca], 0.1 to 5 nM; for `C=C[C@H]1C[C@@]1(NC(=O)C1C[C@@H]2CN1C(=O)[C@H](C(C)(C)C)NC(=O)OCC(C)(C)C/C=C/COc1cccc3c1CN(C3)C(=O)O2)C(=O)NS(=O)(=O)C1CC1` (stereo partly drawn) [Compound 15aq], 0.1 to 5 nM.
To `CC[C@H]1C[C@@]1(NC(=O)C1C[C@@H]2CN1C(=O)[C@H](C(C)(C)C)NC(=O)OCC(C)(C)CCCCCOCc1cccc3c1CN(C3)C(=O)O2)C(=O)NS(=O)(=O)C1CC1` (stereo partly drawn) [Compound 15av] belongs 5.1 to 50 nM.
To `CC[C@H]1C[C@@]1(NC(=O)C1C[C@@H]2CN1C(=O)[C@H](C(C)(C)C)NC(=O)OCCCCCCOc1cccc3c1CN(C3)C(=O)O2)C(=O)NS(=O)(=O)C1CC1` (stereo partly drawn) [Compound 15w] belongs 0.1 to 5 nM; to `C=CC1CC1(NC(=O)C1CC2CN1C(=O)C(C(C)(C)C)NC(=O)OCCCCCCOc1cccc3c1CN(C3)C(=O)O2)C(=O)NS(=O)(=O)C1CC1` (stereo not drawn) [Compound 15aa], 0.1 to 5 nM; to `C=C[C@H]1C[C@@]1(NC(=O)C1C[C@@H]2CN1C(=O)[C@H](C(C)(C)C)NC(=O)OCC1(C/C=C/COc3cccc4c3CN(C4)C(=O)O2)CC1)C(=O)NS(=O)(=O)C1CC1` (stereo partly drawn) [Compound 15g], 0.1 to 5 nM.
`CC[C@H]1C[C@@]1(NC(=O)C1C[C@@H]2CN1C(=O)[C@H](C(C)(C)C)NC(=O)OCC(C)(C)C/C=C/COc1c(OC)ccc3c1CN(C3)C(=O)O2)C(=O)NS(=O)(=O)C1CC1` (stereo partly drawn) [Compound 15h] came in with an IC50 of 5.1 to 50 nM.
Regarding `CC[C@H]1C[C@@]1(NC(=O)C1C[C@@H]2CN1C(=O)[C@H](C(C)(C)C)NC(=O)OCC(C)(C)CCCCOc1ccc(Cl)c3c1CN(C3)C(=O)O2)C(=O)NS(=O)(=O)C1CC1` (stereo partly drawn) [Compound 15ax], the IC50 was in the range of 0.1 to 5 nM.
For `CC[C@H]1C[C@@]1(NC(=O)C1C[C@@H]2CN1C(=O)[C@H](C(C)(C)C)NC(=O)OCC(C)(C)OCCCCOc1cccc3c1CN(C3)C(=O)O2)C(=O)NS(=O)(=O)C1CC1` (stereo partly drawn) [Compound 15am] the value was 0.1 to 5 nM; for `CC[C@H]1C[C@@]1(NC(=O)C1C[C@@H]2CN1C(=O)[C@H](C(C)(C)C)NC(=O)OCC1(CCCCOc3cccc4c3CN(C4)C(=O)O2)CC1)C(=O)NS(=O)(=O)C1CC1` (stereo partly drawn) [Compound 15e], 0.1 to 5 nM; for `CC[C@H]1C[C@@]1(NC(=O)C1C[C@@H]2CN1C(=O)[C@H](C(C)(C)C)NC(=O)OCCCC/C=C/COc1ccc3c(c1)CN(C3)C(=O)O2)C(=O)NS(=O)(=O)C1CC1` (stereo partly drawn) [Compound 15bg], 0.1 to 5 nM.
Regarding `C=CC1CC1(NC(=O)C1CC2CN1C(=O)C(C(C)(C)C)NC(=O)OCCCC=CCOc1ccc3c(c1)CN(C3)C(=O)O2)C(=O)NS(=O)(=O)C1CC1` (stereo not drawn) [Compound 15bj], the IC50 fell in the range of 0.1 to 5 nM.
For `C=C[C@H]1C[C@@]1(NC(=O)C1C[C@@H]2CN1C(=O)[C@H](C(C)(C)C)NC(=O)OCCCCCCCOc1cccc3c1CN(C3)C(=O)O2)C(=O)NS(=O)(=O)C1CC1` (stereo partly drawn) [Compound 15ab] the value was 0.1 to 5 nM; for `CCC1CC1(NC(=O)C1CC2CN1C(=O)C(C(C)(C)C)NC(=O)OCCC=CCOc1c(OC)ccc3c1CN(C3)C(=O)O2)C(=O)NS(=O)(=O)C1CC1` (stereo not drawn) [Compound 15m], 5.1 to 50 nM.
